Experimental data from patent US20090325202A1, “Methods for Developing and Assessing Therapeutic Agents” (priority 2006, published 2009).

Columns and labels:
S6 ribosomal protein [1] = test: Panc 265 xenograft in vivo FNAB smears, S6 ribosomal protein phosphorylation; parameters: species or system human; details: CCI-779 20 mg/kg days 1-5 i.p., FNAB day 7
Protocol: Animals were either untreated or treated with ZD1839: 150 mg/Kg daily or CCI-779: 20 mg/kg days 1-5 by intraperitoneal injection
(§1) To obtain cancer cells, each animal tumor was sampled as described above. After collection of tumor FNAB samples, xenograft animals were subsequently treated with ZD1839 or CCI-779 for 28 days and tumor volumes were determined as described above. At day 7 of therapy, AD/DQ slides were prepared from tumor FNAB samples to retrospectively correlate the results of in vivo and ex vivo chemosentitivty tests from the same xenograft animal.
(§2) After the treatment cells were collected, protein extracts were prepared and Western blot analysis was performed as described above. The ex vivo effect of ZD 1839 and CCI-779 on phosphorylation of ERK1/2 or S6 ribosomal proteins, respectively, was correlated with the in vivo data gathered from the FNAB smears prepared at day 7 of treatment.

S6-RP = test: Ex vivo FNAB drug sensitivity assay, S6-RP phosphorylation by Western blot; type: cell-based, human
Protocol: Tumor cells were collected by FNAB from the xenograft animals before the start of treatment using a sterile 25G short needle. Tumor samples were immediately transferred into 10 ml sterile prewarmed complete RPMI-1640 culture medium containing 10% FBS, penicillin (200 μg/ml), and streptomycin (200 μg/ml). Cells were incubated with 0.04% trypan blue (Sigma) dissolved in PBS (9.1 mM Na2HPO4, 1.7 mM NaH2PO4, and 150 mM NaCl, pH 7.4). The viable (membrane-intact) and dead cells were then counted using Neubauer hemocytometer and the total viable cell count was used to calculate final working volumes. Approximately 25,000 viable tumor cells were seeded into each well of a 6-well polypropylene microplate. Cells were treated in duplicates with vehicle (control), erlotinib (5 μM) or temsirolimus (1 μM) in a humidified 5% CO2 incubator at 37° C. for 6 hours. No fibroblast and endothelial cell growth was observed. Following treatment, non-adherent and adherent cells (only a few, collected by scraping) were pooled together and centrifuged at 500×g for 5 min at 4° C. After washing with PBS, cells were lysed in 100 μL of ice-cold lysis buffer (50 mM Tris-HCl, 0.25M NaCl, 0.1% (v/v) Triton X-100, 1 mM EDTA, 50 mM NaF, and 0.1 mM Na3VO4, pH 7.4) containing protease and phosphatase inhibitors (Roche Molecular Biochemicals) and analyzed by Western blot.
Protein concentrations obtained from FNAB samples were quantified before each experiment. Protein extracts (15 μg) were electrophoresed on a 10% (w/v) SDS-polyacrylamide gel. After electrotransfer to Immobilon-P membranes (Millipore), membranes were blocked at room temperature using SuperBlock (Pierce) for one hour. The primary antibodies were diluted at 1:1000 in 1:10 dilution of SuperBlock solution and the membranes were incubated with primary antibodies overnight at 4° C. The antibodies tested were phospho-ERK1/2 (Cell signal #9101), phospho-S6 Ribosomal Protein (Cell Signaling Technology, Beverly, Mass.) and total ERK1/2 (Cell Signaling Technology, Beverly, Mass.) and total S6 Ribosomal Protein (Cell Signaling Technology, Beverly, Mass.). The next day, the membranes were washed and incubated for 1 h at room temperature with horseradish peroxidase (HRP)-conjugated secondary antibodies, rabbit IgG-HRP (Santa Cruz Biotechnology), or mouse IgG-HRP (Santa Cruz Biotechnology) at a final dilution of 1:3000. […]
To test if tumor cells obtained by FNAB can be used in the ex vivo assays to predict tumor response in vivo, 25,000 viable cancer cells, as determined by trypan blue dye exclusion, were treated with erlotinib or temsirolimus for six hours, after which signal pathway inhibition was analyzed by Western blot. Under these cell culture conditions no fibroblast and endothelial cell growth was detected (data not shown). […]

S6 ribosomal protein [2] = test: Panc 265 xenograft FNAB cells treated ex vivo, S6 ribosomal protein phosphorylation; type: cell-based, human; details: Panc 265 FNAB cells; CCI-779 1 uM; 6 hours
Protocol: as §1
To determine viability of tumor cells obtained by FNAB, trypan blue dye exclusion assay was performed. The viability of tumor cells obtained by tumor FNAB from control animals was over 95%. Approximately 75,000 tumor cells were seeded into each well of a 6-well polypropylene microplate. Cells were treated in duplicates with vehicle (control) or with ZD1839 (5 uM) or CCI-779 (1 uM) in a humidified 5% CO2 incubator at 37° C. for different periods to determine the optimal treatment time to analyze drug effects.
as §2

[3] = test system: primary human pancreatic cancer xenograft tumors; test: Tumor growth (RTG) in xenograft mouse models of primary human pancreatic cancer; type: in vivo, athymic (nu+/nu+) mice
From the text: Four-week-old female athymic (nu+/nu+) mice were purchased from Harlan (Harlan Laboratories, Washington, D.C.). The research protocol was approved by the Johns Hopkins University Animal Care and Use Committee and animals were maintained in accordance to guidelines of the American Association of Laboratory Animal Care. Briefly, frozen pancreatic xenografts in first passage in mice, after being obtained from surgical specimens of patients undergoing pancreatic resection for adenocarcinoma at the Johns Hopkins Hospital were re-implanted subcutaneously in groups of 5 mice for each patient, with 2 small pieces per mouse (F2 generation). Tumors were allowed to grow to a size of 1.5 cm at which point they were harvested, divided into small ˜3×3×3 mm pieces, and transplanted to another 18-22 mice, with two tumors per mouse. Tumors from this second mouse-to-mouse passage were allowed to grow until reaching −200 mm^3, at which time mice were randomized in the following three treatment groups, with 6 mice in each group: control (vehicle), erlotinib (50 mg/kg/day i.p.), and temsirolimus (20 mg/kg days 1-5 i.p.). Mice were monitored daily for signs of toxicity and were weighed three times per week. Tumor size was evaluated three times per week by caliper measurements using the following formula: tumor volume=[length×width^2]/2 as previously reported (19). Relative tumor growth (RTG) was calculated by tumor growth of treated mice divided by tumor growth of control mice (T/C)×100. Experiments were terminated on day 28. Tumor response was defined as sensitive, when RTG was less than 50% on day 28.

CO[C@H]1C[C@@H]2CC[C@@H](C)[C@@](O)(O2)C(=O)C(=O)N2CCCC[C@H]2C(=O)O[C@H]([C@H](C)C[C@@H]2CC[C@@H](OC(=O)C(C)(CO)CO)[C@H](OC)C2)CC(=O)[C@H](C)/C=C(\C)[C@@H](O)[C@@H](OC)C(=O)[C@H](C)C[C@H](C)/C=C/C=C/C=C/1C [temsirolimus, Temsirolimus]
target protein phosphorylation in vivo (S6 ribosomal protein [1]): strongly inhibited target protein phosphorylation | S6-RP phosphorylation ex vivo (S6-RP; all tumors of the xenograft panel sensitive to therapy, temsirolimus 1 μM, 6 hours): blocked S6-RP phosphorylation | S6-RP phosphorylation ex vivo (S6-RP; cancer cells from pancreatic cancer patient 1, six hours): only partially decreased S6-RP phosphorylation | phosphorylation of S6-RP ex vivo (S6-RP; cells from tumor A198, temsirolimus 1 μM, 6 hours): inhibited phosphorylation of S6-RP | S6-RP phosphorylation ex vivo (S6-RP; tumor cells of pancreatic cancer patient 2 and 3, six hours): inhibited S6-RP phosphorylation | activity (phosphorylation) of target protein S6 ribosomal protein ex vivo (S6 ribosomal protein [2]): successfully inhibited the activity of its target protein | relative growth (RTG) ([3]; all tumors except A194, temsirolimus 20 mg/kg days 1-5 i.p., day 28): less than 50% | tumor response ([3]; tumor A194): resistant (greater than 50% RTG and were defined as resistant) | tumor response ([3]; tumor A198): sensitive (Tumor response was defined as sensitive, when RTG was less than 50% on day 28)
